The text below walks through data of patent US20130018109A1, “Skin and hair treatments” (priority 2011, published 2013).

Molecules are shown by their SMILES.

Series [1] has as its system mice. The conditions noted are these: according to published information; cited from earlier work.
Series [2] has as its system migraine headaches. Kind of series: Use of linalool shampoo by individuals suffering from migraines. The class given is in vivo, human. The conditions noted are these: same individual, prescription drug taken before the shampoo use. From the text: One individual who had suffered from migraines for several years and who had taken the prescription drug Prozac® with only limited benefits, started using a commercial product, Ivory Shampoo®, with approximately 1% by volume of linalool added. […] Other commercially available shampoos containing little perfume with approximately 1% by volume of linalool added were substituted for the Ivory Shampoo with linalool and the benefit persisted. Another commercially available shampoo that has been used with about 1% by volume of linalool added is Botanical Nutrients® soyflower shampoo containing: water; extracts of geranium maculatum (geranium), Echinacea angustifolia (coneflower), and lavendula angustifolia (lavender); ammonium lauryl sulfate; decyl glucoside; cocoamide MEA; PPG-5-ceteth-10-phosphatel cocoamidopropyl betaine; fragrance; polyquatemium-7; glycerin; panthenol; hydrolyzed soy protein; isostearamidopropyl morpholine lactate; vitamin E; disodium wheat germamido PEG-2 sulfosuccinate; guar hydroxypropyl ammonium chloride; PEG-150 distearate; PEG-30 castor oil; PEG-12 dimethicone; benzophenone-4; disodium EDTA; diazolidinyl urea; methylparaben; and citric acid. Another shampoo that has been used is Bath & Body Works® Bio balancing shampoo.
When this individual stopped using the commercial shampoos containing about 1% linalool, a migraine headache was experienced. […]

For the molecule `C=C(C)[C@H]1CC=C(C)CC1` [Limonene], the tumors in mice entry in series [1] was “shown to cause tumors in mice”. Consider `CNCCC(Oc1ccc(C(F)(F)F)cc1)c1ccccc1` (centres unmarked) [Prozac], for which the “prevention of migraine headaches by prescription drug” value in series [2] was “had not prevented migraine headaches”.
